The results in this text go back to PubChem BioAssay (NCI).

Some test systems named below: ACHN renal; CCRF-CEM leukemia; DU-145 prostate; HCC-2998 colon; HCT-116 colon; HCT-15 colon; HS 578T breast; HT29 colon; KM12 colon; MALME-3M melanoma; MDA-MB-231 breast; MDA-N; MOLT-4 leukemia; OVCAR-4 ovarian; SF-268 CNS; SK-MEL-5 melanoma; SK-OV-3 ovarian; SN12C renal; U251 CNS.
What all share (assay): NCI-60 cell line screen, 48 h

Structures are written as SMILES.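 Briefly, cells in 96-well plates were exposed to five compound concentrations for 48 h, and endpoints were estimated by linear interpolation. Definition used: TGI = concentration required for complete inhibition of growth.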

As for `O=Nc1c(-c2c(O)[nH]c3ccccc23)[nH]c2ccccc12`, the TGI in the experiment with ACHN renal is above 32.1 µM; with CCRF-CEM leukemia, 29.7 µM; with DU-145 prostate, 31 µM; with HCC-2998 colon it was 16.3 µM; in the experiment on HCT-116 colon, above 29.6 µM; with HCT-15 colon, above 87.5 µM. In addition, the TGI in the experiment on HS 578T breast is above 29.1 µM; with HT29 colon it was above 57.8 µM; in the experiment with KM12 colon, above 38.7 µM; in the experiment with MALME-3M melanoma, 27.8 µM; in the experiment with MDA-MB-231 breast, 21.2 µM; with MDA-N, above 47.4 µM. Further, the TGI was above 100 µM with MOLT-4 leukemia; 34.1 µM with OVCAR-4 ovarian; above 74.1 µM in the experiment with SF-268 CNS; 26.4 µM with SK-MEL-5 melanoma; 21.2 µM with SK-OV-3 ovarian; 13.3 µM in the experiment on SN12C renal. The compound also gave a TGI with U251 CNS above 65.4 µM.

As to `CCOC(=O)/C(C=Nc1c(C)n(C)n(-c2ccccc2)c1=O)=C(/O)c1ccccc1`, the TGI in the experiment on ACHN renal, in the experiment with CCRF-CEM leukemia, in the experiment with DU-145 prostate, in the experiment with HCC-2998 colon, in the experiment on HCT-116 colon and in the experiment on HCT-15 colon was above 100 µM in each case. Further, the TGI with HS 578T breast is above 100 µM; in the experiment with HT29 colon, above 100 µM; in the experiment with KM12 colon, 0.746 µM; in the experiment on MALME-3M melanoma, above 100 µM; with MDA-MB-231 breast, above 100 µM; in the experiment on MDA-N, above 100 µM. In addition, the TGI in the experiment with MOLT-4 leukemia, in the experiment with OVCAR-4 ovarian, with SF-268 CNS, in the experiment with SK-MEL-5 melanoma, with SK-OV-3 ovarian and in the experiment on SN12C renal was above 100 µM in each case. The same compound came in with a TGI in the experiment on U251 CNS above 100 µM.

For `CC1(C)O[C@H]([C@H](O)c2nnc3ccc(Cl)nn23)[C@@H]([C@H]2COC(C)(C)O2)O1`, the TGI with ACHN renal, in the experiment with CCRF-CEM leukemia, with DU-145 prostate, with HCC-2998 colon, with HCT-116 colon and with HCT-15 colon was above 100 µM in each case. Further, the TGI in the experiment with HS 578T breast, with HT29 colon, in the experiment on KM12 colon, in the experiment on MALME-3M melanoma, in the experiment on MDA-MB-231 breast and with MDA-N was above 100 µM in each case. Moreover, the TGI in the experiment on MOLT-4 leukemia, with OVCAR-4 ovarian, with SF-268 CNS, in the experiment on SK-MEL-5 melanoma, in the experiment with SK-OV-3 ovarian and in the experiment with SN12C renal was above 100 µM throughout. The TGI in the experiment on U251 CNS was above 100 µM.

For the compound `NC(=O)NC(=O)CCC(NS(=O)(=O)c1ccccc1)C(=O)NC(N)=O` (centres undefined), the TGI in the experiment with ACHN renal, in the experiment with CCRF-CEM leukemia, in the experiment on DU-145 prostate, in the experiment with HCC-2998 colon, with HCT-116 colon and with HCT-15 colon was above 100 µM throughout. For the same compound, the TGI in the experiment on HS 578T breast, with HT29 colon, in the experiment on KM12 colon, with MALME-3M melanoma, with MDA-MB-231 breast and in the experiment with MDA-N was above 100 µM each time. Also, the TGI with MOLT-4 leukemia, in the experiment on OVCAR-4 ovarian, with SF-268 CNS, in the experiment with SK-MEL-5 melanoma, with SK-OV-3 ovarian and with SN12C renal was above 100 µM each time. For the same compound, the TGI in the experiment on U251 CNS is above 100 µM.

`Cc1cc(S(=O)(=O)NC(=C(C#N)C#N)[n+]2ccc(N(C)C)cc2)c([S-])cc1Cl`: the TGI in the experiment with ACHN renal, in the experiment on CCRF-CEM leukemia, in the experiment with DU-145 prostate, with HCC-2998 colon, with HCT-116 colon and in the experiment on HCT-15 colon was above 100 µM throughout. Also, the TGI with HS 578T breast, in the experiment with HT29 colon, with KM12 colon, in the experiment on MALME-3M melanoma, in the experiment with MDA-MB-231 breast and with MDA-N was above 100 µM each time. Also, the TGI with MOLT-4 leukemia, with OVCAR-4 ovarian, in the experiment on SF-268 CNS, in the experiment with SK-MEL-5 melanoma, in the experiment with SK-OV-3 ovarian and in the experiment on SN12C renal was above 100 µM each time. The same compound had a TGI in the experiment with U251 CNS above 100 µM.

For `CC1=CC=C2c3ccccc3C=CN2C(=O)C1`, the TGI with ACHN renal, in the experiment on CCRF-CEM leukemia, in the experiment with DU-145 prostate, in the experiment with HCC-2998 colon, in the experiment with HCT-116 colon and in the experiment with HCT-15 colon was above 100 µM in each case. For the same compound, the TGI in the experiment with HS 578T breast, in the experiment on HT29 colon, in the experiment on KM12 colon, in the experiment with MALME-3M melanoma, in the experiment on MDA-MB-231 breast and with MDA-N was above 100 µM throughout. Further, the TGI is above 100 µM with MOLT-4 leukemia; above 100 µM with OVCAR-4 ovarian; above 100 µM in the experiment with SF-268 CNS; 46.1 µM in the experiment with SK-MEL-5 melanoma; above 100 µM in the experiment with SK-OV-3 ovarian; above 100 µM in the experiment on SN12C renal. In the experiment on U251 CNS, this compound showed a TGI above 100 µM.
